Data taken from patent publication US8637537B2, “Serine/threonine kinase inhibitors” (Genentech, Inc., priority 2011, dated 2014).
Read-outs that look alike come from different tables or passages of the source.

Target: T1, human recombinant GST-PAK1-KD protein (Homo sapiens, UniProt Q13153)
T1 construct: residues #249-545 of human PAK1, UniProtKP/Swiss Q13153; His6 (N); made in house; host or cells: Sf9 insect cells, pAcGP67 baculovirus expression vector
Experiment: GST-PAK1-KD (kinase domain) biochemical assay, microfluidic mobility shift
Experimental: Activity of human recombinant GST-PAK1-KD protein was assessed in vitro assay by observing the phosphorylation of a fluorogenic peptide substrate.
The peptide substrate is a consensus sequence based on various PAK1 substrates reported in the scientific literature. […] Incubations were carried out at 22° C. in MatriCal MP101 384-well Metriplates™. […] Following the 30-minute incubation, the assay mixtures were quenched by the addition of 3 μL of 250 mM EDTA, and the substrate and phosphorylated product were separated by capillary electrophoresis and detected using LabChip® Caliper 3000 (Caliper Life Sciences).

[1] = Table I, PAK1 Ki class, read-out: Ki

T1 sequence (Q13153 249-545): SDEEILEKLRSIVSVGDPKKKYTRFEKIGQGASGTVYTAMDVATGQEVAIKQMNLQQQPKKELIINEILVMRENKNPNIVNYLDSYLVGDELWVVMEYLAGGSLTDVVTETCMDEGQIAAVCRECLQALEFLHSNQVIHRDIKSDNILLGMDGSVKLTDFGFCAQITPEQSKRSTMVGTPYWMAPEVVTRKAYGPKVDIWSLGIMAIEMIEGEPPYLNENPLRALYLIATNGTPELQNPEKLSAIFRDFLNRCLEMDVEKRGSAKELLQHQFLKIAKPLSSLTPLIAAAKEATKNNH

SMILES | Ki [1] [nM] | also measured
C[C@H](Nc1nccc(Nc2cc(C3CC3(F)F)[nH]n2)n1)c1ccc2[nH]ccc2c1 (mixture of isomers) [I-66, N^2—((S)-1-(1H-indol-5-yl)ethyl)-N^4-(5-(2,2-difluorocyclopropyl)-1H-pyrazol-3-yl)pyrimidine-2,4-diamine] | 50 to 250 | –
c1ccc([C@@H]2C[C@H]2c2cc(Nc3ccnc(NCc4ccc5[nH]cnc5c4)n3)n[nH]2)cc1 (racemic) [I-27, N^2-(1H-Benzimidazol-5-ylmethyl)-N^4-[5-[(trans)-2-phenylcyclopropyl]-1H-pyrazol-3-yl]pyrimidine-2,4-diamine] | 50 to 250 | –
c1ccc([C@@H]2C[C@H]2c2cc(Nc3ccnc(NCc4cccc5[nH]ccc45)n3)n[nH]2)cc1 (racemic) [I-57, N^2-((1H-indol-4-yl)methyl)-N^4-(5-((trans)-2-phenylcyclopropyl)-1H-pyrazol-3-yl)pyrimidine-2,4-diamine] | 250 to 1000 | –
F[C@@H]1C[C@H]1c1cc(Nc2ccnc(NCc3cccc4[nH]ccc34)n2)n[nH]1 (racemic) [I-80, trans-N^2-((1H-indol-4-yl)methyl)-N^4-(5-(2-fluorocyclopropyl)-1H-pyrazol-3-yl)pyrimidine-2,4-diamine] | < 50 | –
F[C@@H]1C[C@@H]1c1cc(Nc2ccnc(NCc3cccc4[nH]ccc34)n2)n[nH]1 (racemic) [I-81] | 50 to 250 | –
Fc1ccccc1[C@H]1C[C@@H]1c1cc(Nc2ccnc(NCc3cccc4[nH]ccc34)n2)n[nH]1 (racemic) [I-118, N^2-((1H-indol-4-yl)methyl)-N^4-(5-(trans-2-(2-fluorophenyl)cyclopropyl)-1H-pyrazol-3-yl)pyrimidine-2,4-diamine] | 250 to 1000 | –
C[C@H](Nc1nccc(Nc2cc([C@@H]3C[C@@H]3F)[nH]n2)n1)c1ccc2[nH]cnc2c1 (single isomer, unassigned) [I-67] | < 50 | –
C[C@H](Nc1nccc(Nc2cc([C@H]3C[C@@H]3c3ccccc3F)[nH]n2)n1)c1ccc2[nH]cnc2c1 (stereo in doubt) [I-23, N^2—((S)-1-(1H-benzo[d]imidazol-5-yl)ethyl)-N^4-(5-((trans)-2-(2-fluorophenyl)cyclopropyl)-1H-pyrazol-3-yl)pyrimidine-2,4-diamine] | 50 to 250 | –
C[C@H](Nc1nccc(Nc2cc([C@H]3C[C@@H]3c3ccccc3)[nH]n2)n1)c1ccc2[nH]cnc2c1 (stereo in doubt) [I-24, N^2—((S)-1-(1H-benzo[d]imidazol-5-yl)ethyl)-N^4-(5-((trans)-2-phenylcyclopropyl)-1H-pyrazol-3-yl)pyrimidine-2,4-diamine] | 50 to 250 | –
C[C@H](Nc1nccc(Nc2cc(C3CCC3)[nH]n2)n1)c1ccc2[nH]cnc2c1 [I-1, (S)—N^2-(1-(1H-benzo[d]imidazol-5-yl)ethyl)-N^4-(5-cyclobutyl-1H-pyrazol-3-yl)pyrimidine-2,4-diamine] | < 50 | –
C[C@H](Nc1nccc(Nc2cc(C3CCCC3)[nH]n2)n1)c1ccc2[nH]cnc2c1 [I-2, (S)—N^2-(1-(1H-benzo[d]imidazol-5-yl)ethyl)-N^4-(5-cyclopentyl-1H-pyrazol-3-yl)pyrimidine-2,4-diamine] | < 50 | –
Clc1c(CNc2nccc(Nc3cc(C4CC4)[nH]n3)n2)ccc2[nH]cnc12 [I-3, N^2-[(4-Chloro-1H-benzimidazol-5-yl)methyl]-N^4-(5-cyclopropyl-1H-pyrazol-3-yl)pyrimidine-2,4-diamine] | – | Ki (Ki, Table I, PAK1 Ki class): < 50 nM
Cc1cc(Nc2cc(C3CC3)[nH]n2)nc(N[C@@H](C)c2ccc3[nH]cnc3c2)n1 [I-4, (S)—N^2-(1-(1H-benzo[d]imidazol-5-yl)ethyl)-N^4-(5-cyclopropyl-1H-pyrazol-3-yl)-6-methylpyrimidine-2,4-diamine] | 50 to 250 | –
C[C@H](Nc1nccc(Nc2cc(C3CC3)[nH]n2)n1)c1ccc2[nH]cnc2c1 [I-5, N^2-[(1S)-1-(1H-Benzimidazol-5-yl)ethyl]-N^4-(5-cyclopropyl-1H-pyrazol-3-yl)pyrimidine-2,4-diamine] | – | Ki (Ki, Table I, PAK1 Ki class): < 50 nM
CC[C@H](Nc1nccc(Nc2cc(C3CC3)[nH]n2)n1)c1ccc2[nH]cnc2c1 [I-6, N^2-[(1S)-1-(1H-benzimidazol-5-yl)propyl]-N^4-(5-cyclopropyl-1H-pyrazol-3-yl)pyrimidine-2,4-diamine] | < 50 | –
C[C@@H](c1ccc2[nH]cnc2c1)N(C)c1nccc(Nc2cc(C3CC3)[nH]n2)n1 [I-9, (S)—N^2-(1-(1H-benzo[d]imidazol-5-yl)ethyl)-N^4-(5-cyclopropyl-1H-pyrazol-3-yl)-N^2-methylpyrimidine-2,4-diamine] | < 50 | –
Cc1cc(Nc2cc(C3CC3)[nH]n2)nc(NCc2ccc3[nH]cnc3c2)n1 [I-10, N^2-((1H-benzo[d]imidazol-5-yl)methyl)-N^4-(5-cyclopropyl-1H-pyrazol-3-yl)-6-methylpyrimidine-2,4-diamine] | < 50 | –
CN(Cc1ccc2[nH]cnc2c1)c1nccc(Nc2cc(C3CC3)[nH]n2)n1 [I-12, N^2-((1H-Benzo[d]imidazol-5-yl)methyl)-N^4-(5-cyclopropyl-1H-pyrazol-3-yl)-N^2-methylpyrimidine-2,4-diamine] | < 50 | –

SMILES | Ki [1] [nM] | also measured
c1cc(Nc2cc(C3CC3)[nH]n2)nc(NCc2ccc3[nH]cnc3c2)n1 [I-13, N^2-((1H-Benzo[d]imidazol-5-yl)methyl)-N^4-(5-cyclopropyl-1H-pyrazol-3-yl)pyrimidine-2,4-diamine] | – | Ki: < 50 nM
C[C@H](Nc1nccc(Nc2cc(C3CCOC3)[nH]n2)n1)c1ccc2[nH]cnc2c1 (stereo partly drawn) [I-14, N^2—((S)-1-(1H-benzo[d]imidazol-5-yl)ethyl)-N^4-(5-(tetrahydrofuran-3-yl)-1H-pyrazol-3-yl)pyrimidine-2,4-diamine] | < 50 | –
c1cc(Nc2cc(C3CC3)[nH]n2)nc(NCc2ccc3[nH]ccc3c2)n1 [I-15, N^2-((1H-Indol-5-yl)methyl)-N^4-(5-cyclopropyl-1H-pyrazol-3-yl)pyrimidine-2,4-diamine] | – | Ki: < 50 nM
Cc1c(CNc2nccc(Nc3cc(C4CC4)[nH]n3)n2)ccc2[nH]cnc12 [I-16, N^4-(5-Cyclopropyl-1H-pyrazol-3-yl)-N^2-((4-methyl-1H-benzo[d]imidazol-5-yl)methyl)pyrimidine-2,4-diamine] | 50 to 250 | –
CC(C)(Nc1nccc(Nc2cc(C3CC3)[nH]n2)n1)c1ccc2[nH]cnc2c1 [I-17, N^2-(2-(1H-Benzo[d]imidazol-5-yl)propan-2-yl)-N^4-(5-cyclopropyl-1H-pyrazol-3-yl)pyrimidine-2,4-diamine] | 50 to 250 | –
C[C@H](Nc1nc(Nc2cc(C3CC3)[nH]n2)cc(C(F)(F)F)n1)c1ccc2[nH]ccc2c1 [I-18, (S)—N^2-(1-(1H-indol-5-yl)ethyl)-N^4-(5-cyclopropyl-1H-pyrazol-3-yl)-6-(trifluoromethyl) pyrimidine-2,4-diamine] | 50 to 250 | –
Cc1cc(Nc2cc(C3CC3)[nH]n2)nc(NCc2ccc3[nH]ccc3c2Cl)n1 [I-19, N^2-((4-chloro-1H-indol-5-yl)methyl)-N^4-(5-cyclopropyl-1H-pyrazol-3-yl)-6-methylpyrimidine-2,4-diamine] | 50 to 250 | –
Clc1c(CNc2nccc(Nc3cc(C4CC4)[nH]n3)n2)ccc2[nH]ccc12 [I-20, N^2-((4-chloro-1H-indol-5-yl)methyl)-N^4-(5-cyclopropyl-1H-pyrazol-3-yl)pyrimidine-2,4-diamine] | 50 to 250 | –
C[C@H](Nc1nccc(Nc2cc(OCc3ccccc3)[nH]n2)n1)c1ccc2[nH]cnc2c1 [I-21, N^2-[(1S)-1-(1H-Benzimidazol-5-yl)ethyl]-N^4-(5-benzyloxy-1H-pyrazol-3-yl)pyrimidine-2,4-diamine] | 50 to 250 | –
C[C@H](Nc1nccc(Nc2cc(C3CC3)[nH]n2)n1)c1ccc2[nH]ccc2c1Cl [I-22, (S)—N^2-(1-(4-chloro-1H-indol-5-yl)ethyl)-N^4-(5-cyclopropyl-1H-pyrazol-3-yl)pyrimidine-2,4-diamine] | 50 to 250 | –
Cc1c[nH]c2ccc(CNc3nccc(Nc4cc(C5CC5)[nH]n4)n3)cc12 [I-25, N^4-(5-cyclopropyl-1H-pyrazol-3-yl)-N^2-((3-methyl-1H-indol-5-yl)methyl)pyrimidine-2,4-diamine] | 50 to 250 | –
Cc1cc(CNc2nccc(Nc3cc(C4CC4)[nH]n3)n2)cc2nc[nH]c12 [I-26, N^4-(5-Cyclopropyl-1H-pyrazol-3-yl)-N^2-((7-methyl-1H-benzo[d]imidazol-5-yl)methyl)-pyrimidine-2,4-diamine] | 50 to 250 | –
Fc1cc2[nH]cnc2cc1CNc1nccc(Nc2cc(C3CC3)[nH]n2)n1 [I-28, N^4-(5-Cyclopropyl-1H-pyrazol-3-yl)-N^2-((6-fluoro-1H-benzo[d]imidazol-5-yl)methyl)pyrimidine-2,4-diamine] | 50 to 250 | –
Fc1c(CNc2nccc(Nc3cc(C4CC4)[nH]n3)n2)ccc2[nH]cnc12 [I-29, N^4-(5-Cyclopropyl-1H-pyrazol-3-yl)-N^2-[(4-fluoro-1H-benzimidazol-5-yl)methyl]pyrimidine-2,4-diamine] | – | Ki: 250 to 1000 nM
Cc1cc2[nH]cnc2cc1CNc1nccc(Nc2cc(C3CC3)[nH]n2)n1 [I-30, N^4-(5-Cyclopropyl-1H-pyrazol-3-yl)-N^2-[(6-methyl-1H-benzimidazol-5-yl)methyl]pyrimidine-2,4-diamine] | 250 to 1000 | –
Cc1cnc(N[C@@H](C)c2ccc3[nH]ccc3c2)nc1Nc1cc(C2CC2)[nH]n1 [I-31, (S)—N^2-(1-(1H-indol-5-yl)ethyl)-N^4-(5-cyclopropyl-1H-pyrazol-3-yl)-5-methylpyrimidine-2,4-diamine] | 250 to 1000 | –
Cc1cnc(NCc2ccc3[nH]cnc3c2)nc1Nc1cc(C2CC2)[nH]n1 [I-32, N^2-(1H-Benzoimidazol-5-ylmethyl)-N^4-(5-cyclopropyl-1H-pyrazol-3-yl)-5-methyl-pyrimidine-2,4-diamine] | 250 to 1000 | –
